The values that follow come from PMC4492759, “Pharmacological profiling of the hemodynamic effects of cannabinoid ligands: a combined in vitro and in vivo approach” (Pharmacology Research & Perspectives, 2015).

One data set deals with T1, mouse CB1 (Mus musculus, UniProt P47746).
T1 construct: expressed in transfected cells; host or cells: HEK293s, transient transfection; membranes prepared
Description: [35S]-GTPγS binding, membranes of HEK293s cells transfected with mouse CB1. The format is biochemical. The conditions noted are these: mean ± SEM. As to the method:
(§1) Antagonist assays were performed similarly, with the addition of an EC80 concentration of CP55940 as a nonselective CB1/CB2 agonist in conjunction with the ligand to be tested. Nonspecific binding was determined in the presence of 20 μmol/L unlabeled GTPγS. The reaction was terminated by addition of ice-cold wash buffer (50 mmol/L Tris-HCl, 5 mmol/L MgCl2, 50 mmol/L NaCl; pH 7.4) followed by rapid filtration under vacuum through 96-well B-glass fiber filter plates (PerkinElmer, Waltham, Massachusetts, USA) using a Biomek FX (Beckman Coulter, Bromma, Sweden). The filter plates were dried (30 min at 50°C) before scintillation liquid (PerkinElmer) was added onto the filters and the bound radioactivity was determined using a scintillation counter (Wallac). Data were fitted with a four-parameter logistic fit using the equation y = A + (B − A)/1 + ((C/x)^D), where A is no activation, B is full activation, C is the EC50, and D is the Hill slope. All data were based on at least three independent experiments.

The target of a further data set is T2, mouse GPR55 (Mus musculus, UniProt Q3UJF0).
T2 construct: expressed in transfected cells; host or cells: HEK293s, transient transfection; membranes prepared
T2 sequence (Q3UJF0 whole entry): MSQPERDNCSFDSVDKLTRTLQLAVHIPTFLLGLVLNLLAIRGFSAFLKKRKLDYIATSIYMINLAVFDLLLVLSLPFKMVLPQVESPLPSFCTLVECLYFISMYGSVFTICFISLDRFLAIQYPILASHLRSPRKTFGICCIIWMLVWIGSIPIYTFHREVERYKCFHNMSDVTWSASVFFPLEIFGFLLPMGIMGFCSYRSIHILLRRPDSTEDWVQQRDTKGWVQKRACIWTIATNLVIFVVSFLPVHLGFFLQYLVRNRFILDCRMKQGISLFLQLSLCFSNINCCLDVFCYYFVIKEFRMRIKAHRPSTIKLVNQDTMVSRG
Nature of the data set: [35S]-GTPγS binding, membranes of HEK293s cells transfected with mouse GPR55. The format is biochemical. The conditions noted are these: mean ± SEM. As to the method:
as §1, with “HEK293s cells were transiently transfected with cDNA encoding rat or mouse CB1 or GPR55 and membranes were prepared as previously described (Ryberg et al. [2007]). In short, agonist activities in [^35S]-GTPγS binding assays were determined by the addition of ligand at 30°C for 45 min in membrane buffer [50 mmol/L NaCl, 5 mmol/L MgCl2, 0.5 mmol/L EDTA, 25 mmol/L HEPES (all Sigma, Gillingham, Dorset, UK); pH 7.4] containing 0.05 μg μL^−1 of membrane protein with 0.01% BSA, 25 μmol/L guanosine 5′-diphosphate (GDP), 100 μmol/L dithiothreitol (DTT), and 0.53 nmol/L [^35S]GTPγS (PerkinElmer) in a final volume of 200 μL. Antagonist” for “Antagonist”
(In general: GTPγS is a poorly hydrolysed GTP analogue; its binding reports G protein activation.)

The target in a further data set is T3, rat GPR55 (Rattus norvegicus, UniProt F1MAK4).
T3 construct: expressed in transfected cells; host or cells: HEK293s, transient transfection; membranes prepared
T3 sequence (F1MAK4 1-319): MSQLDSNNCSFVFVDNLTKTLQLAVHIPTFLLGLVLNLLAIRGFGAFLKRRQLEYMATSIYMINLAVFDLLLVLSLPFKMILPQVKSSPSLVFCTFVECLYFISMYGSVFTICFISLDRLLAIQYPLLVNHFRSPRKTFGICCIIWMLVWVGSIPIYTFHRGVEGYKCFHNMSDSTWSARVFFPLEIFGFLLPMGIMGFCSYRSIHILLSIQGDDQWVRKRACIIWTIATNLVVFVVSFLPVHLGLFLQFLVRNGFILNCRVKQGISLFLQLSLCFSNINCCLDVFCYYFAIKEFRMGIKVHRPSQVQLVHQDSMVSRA
Description: [35S]-GTPγS binding, membranes of HEK293s cells transfected with rat GPR55. The format is biochemical. How it is done: as §1, with “HEK293s cells were transiently transfected with cDNA encoding rat or mouse CB1 or GPR55 and membranes were prepared as previously described (Ryberg et al. [2007]). In short, agonist activities in [^35S]-GTPγS binding assays were determined by the addition of ligand at 30°C for 45 min in membrane buffer [50 mmol/L NaCl, 5 mmol/L MgCl2, 0.5 mmol/L EDTA, 25 mmol/L HEPES (all Sigma, Gillingham, Dorset, UK); pH 7.4] containing 0.05 μg μL^−1 of membrane protein with 0.01% BSA, 25 μmol/L guanosine 5′-diphosphate (GDP), 100 μmol/L dithiothreitol (DTT), and 0.53 nmol/L [^35S]GTPγS (PerkinElmer) in a final volume of 200 μL. Antagonist” for “Antagonist”

Data set [1] has as its system anesthetized Sprague–Dawley (SD) rats. Description: Hemodynamic responses (MABP, HR) in anesthetized normotensive rats. The format is in vivo, rat. As to the method:
(§2) All experiments performed under terminal anesthesia were carried out following approval by Robert Gordon University Animal Ethics Panel. Anesthesia was induced in male SD rats (200–300 g) by sodium pentobarbital [60 mg kg^−1 intraperitoneal (i.p.) injection]. Male/female WT and GPR55^−/− mice (25–35 g) were anesthetized with a mixture of ketamine (120 mg kg^−1) and xylazine (16 mg kg^−1) via i.p. injection. For both species the trachea was cannulated to allow artificial respiration with room air when required (54 strokes min^−1 and tidal volume 1.5 mL 100 g^−1 for rats; 120 strokes min^−1 and tidal volume 100 μL 10 g^−1 for mice) and the left carotid artery and right jugular vein were cannulated for the measurement of arterial BP (MLT844 Physiological Pressure Transducer; AD Instruments, Oxford, UK) and drug administration, respectively. Core temperature was monitored continuously and maintained at 37–38°C with the aid of a Vetcare heated pad (Harvard Apparatus Ltd., Boston, Massachusetts, USA). Anesthesia was monitored by foot pinch reflex and maintained throughout by administration of additional doses of anesthetic (rats: 3–4 mg kg^−1 of sodium pentobarbital salt i.v.; mice: 50 μL 25 g^−1of ketamine/xylazine i.p.) every 40 min, or as required. […] Heart rate (HR) was calculated from the ECG and recorded throughout the entire experimental period. After a stabilization period of approximately 15 min dose–response experiments were carried out as described below.
(§3) As a preliminary assessment of the effects of ACEA on arterial BP, a single bolus intravenous dose (3 mg kg^−1; selected from the literature as a dose known to produce a depressor response) was given to anesthetized rats. […] The time interval between drug administrations was 10–15 min to allow BP values to return to predrug values.

The test system of data set [2] is anesthetized WT and GPR55−/− mice. Nature of the data set: Hemodynamic responses (MABP, HR) in anesthetized WT and GPR55−/− mice. The format is in vivo, mouse. How it is done: as §2, §3
Data set [3] can be described thus: Blood concentration estimated from dose and blood volume. Conditions: ACEA 3 mg kg−1; assuming total blood volume ∼20 mL in a 300 g rat. From the text:
Therefore, in an attempt to determine whether GPR55 plays a role in the depressor response to ACEA we studied the hemodynamic responses in anesthetized WT and GPR55^−/− mice.

Another data set concerns the target T4, rat CB1 (Rattus norvegicus, UniProt P20272).
T4 construct: expressed in transfected cells; host or cells: HEK293s, transient transfection; membranes prepared
Description: [35S]-GTPγS binding, membranes of HEK293s cells transfected with rat CB1. The format is biochemical. Conditions: for EC50: mean ± SEM. As to the method:
as §1

Data set [4] has as its system conscious WT, CB1−/− and GPR55−/− mice. Nature of the data set: Blood pressure and heart rate responses in conscious mice (WT, CB1−/−, GPR55−/−). The conditions noted are these: metoprolol (10 mg kg−1 i.v.); conscious GPR55−/− mice.
[5] abbreviates: agonist mode, at least three experiments, read-out: CB1 EC50, Mouse.
[6] abbreviates: agonist mode, at least three experiments, read-out: GPR55 EC50, Mouse.
Where [7] appears, read: antagonist mode, vs EC80 concentration of CP55940, read-out: CB1 EC50, Mouse (ligand behaved as an antagonist).

Like-named read-outs stand apart in the source and are kept apart here.

T1 sequence (P47746 whole entry): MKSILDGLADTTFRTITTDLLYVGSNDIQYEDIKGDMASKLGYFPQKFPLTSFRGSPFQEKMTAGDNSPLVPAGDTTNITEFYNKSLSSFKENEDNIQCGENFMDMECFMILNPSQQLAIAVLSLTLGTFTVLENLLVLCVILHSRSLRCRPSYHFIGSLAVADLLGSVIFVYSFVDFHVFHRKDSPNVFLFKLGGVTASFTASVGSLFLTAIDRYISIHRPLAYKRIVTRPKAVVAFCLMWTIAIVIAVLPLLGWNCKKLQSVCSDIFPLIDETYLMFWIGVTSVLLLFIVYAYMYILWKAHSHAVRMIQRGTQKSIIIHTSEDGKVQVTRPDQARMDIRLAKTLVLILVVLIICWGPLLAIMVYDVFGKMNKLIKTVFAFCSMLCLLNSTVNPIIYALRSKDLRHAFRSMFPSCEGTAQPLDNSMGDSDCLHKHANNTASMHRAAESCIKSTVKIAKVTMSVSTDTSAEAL
T4 sequence (P20272 whole entry): as the sequence (P47746 whole entry) above, with D95E counted along it

Usually EC50 stands for the midpoint of the concentration-response curve. Regarding `CCCCC/C=C\C/C=C\C/C=C\C/C=C\CCCC(=O)NCCCl` [ACEA, arachidonyl-2′-chloroethylamide], the concentration giving a half-maximal response (EC50) is 3 ± 0.5 nM at mouse CB1 (setting [5]); 62 ± 3 nM at mouse GPR55 (setting [6]); 78 ± 4 nM on rat GPR55 (agonist mode, mean ± SEM, at least three experiments, read-out: GPR55 EC50, Rat); 7 ± 1 nM on rat CB1 (agonist mode, at least three experiments, read-out: CB1 EC50, Rat). The “effect on HR” value is given as “no effect” in data set [1] (ACEA single bolus 3 mg kg−1 i.v.); “nor was there any measurable effect” in data set [2] (ACEA 3 mg kg−1, WT and GPR55−/− mice). Further, the “blood pressure (MABP) response” value in data set [1] (ACEA single bolus 3 mg kg−1 i.v., P < 0.001) was “reproducible and pronounced depressor response”. For the same compound, in data set [2] (ACEA 3 mg kg−1, either WT or GPR55−/− mice), the “depressor response distinguishable from vehicle” value is reported as “did not produce a depressor response”. For the same compound, the “expected total (not necessarily free) blood concentration” value in data set [3] was 100 to 120 nmol/L. Besides, at rat CB1 (GTPγS binding, both mouse and rat), the “higher affinity for CB1 as compared to GPR55” value is “approximately 10 fold”.
`CCCCC/C=C\C/C=C\C/C=C\C/C=C\CCCC(=O)NCCO` [AEA, anandamide]: the EC50 on mouse GPR55 (setting [6]) stood at 38 ± 3 nM; on rat GPR55, 24 ± 3 nM.
Turning to `Cc1c(C(=O)NN2CCCCC2)nn(-c2ccc(Cl)cc2Cl)c1-c1ccc(I)cc1` [AM251, 1-(2,4-dichlorophenyl)-5-(4-iodophenyl)-4-methyl-N-(piperidin-1-yl)-1H-pyrazole-3-carboxamide], the results for the EC50 on mouse CB1 (setting [7]), at mouse GPR55 (setting [6]) and at rat GPR55 were 13 ± 2 nM, 68 ± 3 nM and 74 ± 3 nM, respectively. The “effect on magnitude and duration of the depressor response to ACEA” value in data set [1] (AM251 1 and 3 mg kg−1, ACEA 3 mg kg−1, dose-dependent, P < 0.01) is on record as “attenuated”. Moreover, the “depressor response in the presence of CBD” value in data set [2] (AM251 (1 and 3 mg kg−1) with CBD (50 μg kg−1), mice) was “augmented”. For the same compound, the “higher potency for CB1 (antagonist) than GPR55 (agonist)” value at rat CB1 (GTPγS binding, rat and mouse) is reported as “three to five”.
As to `Cc1c(C(=O)NN2CCOCC2)nn(-c2ccc(Cl)cc2Cl)c1-c1ccc(I)cc1` [AM281, 1-(2,4-dichlorophenyl)-5-(4-iodophenyl)-4-methyl-N-4-morpholinyl-1H-pyrazole-3-carboxamide], the half-maximal effective concentration (EC50) on mouse CB1 (setting [7]) is 8 ± 1 nM; on mouse GPR55 (setting [6]), above 30000 nM; at rat GPR55 it was above 30000 nM; at rat CB1 (antagonist mode, vs EC80 concentration of CP55940, read-out: CB1 EC50, Rat (ligand behaved as an antagonist)) it was 13 ± 4 nM.
As to `C=C(C)[C@@H]1CCC(C)=C[C@H]1c1c(O)cc(CCCCC)cc1O` [CBD, cannabidiol], the EC50 on mouse CB1 (setting [5]) was above 30000 nM; on mouse GPR55 (antagonist mode, vs EC80 concentration of CP55940, read-out: GPR55 EC50, Mouse (ligand behaved as an antagonist)) it was 780 ± 8 nM; at rat GPR55, 624 ± 13 nM. The “effect on HR” value in data set [1] (CBD 50 μg kg−1, any experiments (rats and mice), data not shown) is on record as “unaffected”. The “reduction of AAC value of the depressor response to ACEA” value in data set [1] (CBD alone 50 μg kg−1, ACEA 3 mg kg−1, P < 0.05) was “approximately 50%”. For the same compound, the blood pressure response result is “small but measurable and statistically significant depressor response” in data set [1] (CBD alone 50 μg kg−1 single bolus, P < 0.05); “depressor responses of a similar magnitude” in data set [2] (CBD alone 50 μg kg−1, WT and GPR55−/− mice).
As to `COCCc1ccc(OCC(O)CNC(C)C)cc1` (stereo not drawn) [metoprolol], the “effect on HR” value in data set [4] is “profound and long-lasting bradycardia”.
